Assay results taken from article PMC6895180 (Nature Communications, 2019).
Values joined by “and” are separate entries in the source; they are usually repeats but may differ in a detail not shown here. Equal entries are not always repeated. Where two headings read alike, the source gives them in different places. Marks after values point to notes of the source that are not given here.

Assays:
[1] = tested on: T. b. brucei Lister 427WT; experiment: Drug susceptibility test (resazurin), Lister 427WT; format: cell-based, Trypanosoma brucei brucei
Procedure, shortened: (§1)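 Trypanosomes (2 × 10^4 cells/well) exposed 48 h at 37 °C/5% CO2 in HMI-9/FBS to 23-step doubling dilutions from 100 µM, then resazurin added for a further 24 h. Fluorescence fitted to a variable-slope sigmoid curve.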

[2] = tested on: B48: pentamidine, diminazene and melaminophenyl arsenical resistant T. brucei line; experiment: microbe, parasite or virus in culture; format: cell-based, Trypanosoma brucei brucei
[3] = tested on: T. b. rhodesiense STIB-900; experiment: microbe, parasite or virus in culture; format: cell-based, Trypanosoma brucei rhodesiense
Procedure: (§2) Drug susceptibility tests with Lister 427WT, TbAT1-KO[48], B48[26] and ISMR1[27] were performed using an assay based on the viability indicator dye resazurin in 96-well plates, each well containing 2 × 10^4 cells. The plates were incubated for 48 h with a doubling dilution series of the test compounds in HMI-9/fetal bovine serum at 37 °C/5% CO2 (23 dilutions starting at 100 µM, except for the pentamidine control (50 µM)), after which resazurin (20 µL of 125 µg mL^−1 resazurin sodium salt solution was added to each well (containing 200 µL of cells and test compound)) was added to each well and the plates incubated for another 24 h. Fluorescence was determined using a FLUOstar Optima (BMG Labtech, Durham, NC) and the results fitted to a sigmoid curve with variable slope using Prism 5.0 or Prism 7.04 (GraphPad, San Diego, CA).
(§3) Susceptibility assays with T. brucei Squib 427[49] or T. b. rhodesiense STIB-900[50] were performed under similar conditions as above, but using 10 concentrations of a 4-fold compound dilution series starting at 64 µM. Trypanosoma brucei Squib 427 was seeded at 1.5 × 10^4 parasites/well and T. b. rhodesiense at 4 × 10^3 parasites per well, followed by the addition of resazurin (final concentration of 10 µg mL^−1) after 24 h (T. brucei) or 6 h (T. b. rhodesiense).

T. brucei Squib 427 = experiment: microbe, parasite or virus in culture; format: cell-based, Trypanosoma brucei brucei
Procedure: as §2, §3

[4] = Cytotoxicity on MRC-5 fibroblasts (resazurin); format: cell-based, human; conditions: human, MRC-5SV2 human embryonic lung fibroblasts, source data; read-out: MRC-5 EC50, single measurements
Procedure: (§4) Cytotoxicity assays were performed on MRC-5SV2 (Sigma-Aldrich/ECACC, catalogue number 84100401) human embryonic lung fibroblasts, which were cultured in minimum essential medium with Earle’s salt medium, supplemented with L-glutamine, NaHCO3 and 5% inactivated foetal calf serum. All cultures and assays were conducted at 37 °C with 5% CO2. Ten microliters of the aqueous compound dilutions were added to 190 µL of MRC-5SV2 (3 × 10^4 cells mL^−1). Cell growth was compared to untreated control wells (100% cell growth) and medium control wells (0% cell growth). After a 3-day incubation, cell viability was assessed fluorimetrically after the addition of 50 μL resazurin per well (final concentration of 10 µg mL^−1). After 4 h at 37 °C, fluorescence was measured (λex 550 nm, λem 590 nm). The results were expressed as percentage reduction in cell growth/viability compared to control wells and an EC50 was determined.

[5] = tested on: MRC-5SV2 human embryonic lung fibroblasts; experiment: Cytotoxicity on MRC-5 fibroblasts (resazurin); format: cell-based; conditions: source data; read-out: MRC-5 EC50, single measurements
Procedure: as §4

[6] = tested on: ISMR1: isometamidium-resistant T. brucei cell line; experiment: microbe, parasite or virus in culture; format: cell-based, Trypanosoma brucei brucei
Procedure, shortened: as §1

[7] = tested on: TbAT1-KO: T. brucei cell line lacking the TbAT1(P2) transporter gene; experiment: microbe, parasite or virus in culture; format: cell-based, Trypanosoma brucei brucei
Procedure, shortened: as §1

[8] = resistance factor vs Lister 427WT

Molecule `Nc1ncnc2c1c(Br)cn2[C@H]1C[C@H](O)[C@@H](CO)O1` [Compound 12, 7-Br-2′-deoxy-TUB] has an EC50 ([1]; Trypanosoma brucei, mean and SEM, n = 3, read-out: Lister 427 EC50) of 310 ± 63 nM, an EC50 ([1]; Trypanosoma brucei, source data, read-out: s427 EC50, AVG) of 313 nM and an EC50 ([1]; Trypanosoma brucei, source data, read-out: s427 EC50, single determinations) of 376 nM. The EC50 ([1]; source data, read-out: s427 EC50, single determinations) was 251 nM and 355 nM, the EC50 ([2]; Trypanosoma brucei, mean and SEM, n = 3, read-out: B48 EC50) was 830 ± 160 nM and the EC50 ([2]; Trypanosoma brucei, source data, read-out: B48 EC50, AVG) was 827 nM. The EC50 ([2]; Trypanosoma brucei, source data, read-out: B48 EC50, single determinations) was 990 nM, the “RF (B48)” value [2, 8] was 2.64** and the EC50 ([2]; source data, read-out: B48 EC50, single determinations) was 664 nM and 844 nM. For the same molecule, the EC50 ([3]; Trypanosoma brucei, RHODESIENSE, Alamar blue cell viability assay, mean and SEM, read-out: T. b. rhodesiense EC50) was 120 ± 10 nM, the EC50 ([3]; Trypanosoma brucei, RHODESIENSE, source data, read-out: T. brucei rhodesiense EC50, Average) was 120 nM and the EC50 ([3]; Trypanosoma brucei, RHODESIENSE, source data, read-out: T. brucei rhodesiense EC50, single measurements) was 116 nM. The “SI (MRC/T.b. rhodesiense)” value ([3]; selectivity index) was 50, the EC50 ([3]; source data, read-out: T. brucei rhodesiense EC50, single measurements) was 126 nM and the EC50 (T. brucei Squib 427; Trypanosoma brucei, Alamar blue cell viability assay, mean and SEM, read-out: T. b. brucei EC50) was 460 ± 80 nM. For the same molecule, the EC50 (T. brucei Squib 427; Trypanosoma brucei, source data, read-out: T. brucei brucei EC50, Average) was 460 nM, the EC50 (T. brucei Squib 427; Trypanosoma brucei, source data, read-out: T. brucei brucei EC50, single measurements) was 382 nM and the “SI (MRC/T.b. brucei)” value (T. brucei Squib 427; selectivity index) was 13. It also gave an EC50 (T. brucei Squib 427; source data, read-out: T. brucei brucei EC50, single measurements) of 533 nM, an EC50 at 3 day [4] of 6.83 µM and an EC50 [5] of 5.37 µM. It also gave an EC50 ([6]; Trypanosoma brucei, mean and SEM, n = 3, read-out: ISMR1 EC50) of 920 ± 120 nM, an EC50 ([6]; Trypanosoma brucei, source data, read-out: ISMR1 EC50, AVG) of 919 nM and an EC50 ([6]; Trypanosoma brucei, source data, read-out: ISMR1 EC50, single determinations) of 1150 nM. For the same molecule, the “RF (ISMR1)” value [6, 8] was 2.93**, the EC50 ([6]; source data, read-out: ISMR1 EC50, single determinations) was 731 nM and 876 nM and the EC50 ([7]; Trypanosoma brucei, read-out: TbAT1-KO EC50, AVG, source data) was 758 nM. The EC50 ([7]; Trypanosoma brucei, read-out: TbAT1-KO EC50, mean and SEM, n = 3) was 760 ± 180 nM, the EC50 ([7]; Trypanosoma brucei, read-out: TbAT1-KO EC50, single determinations, source data) was 940 nM and the EC50 ([7]; read-out: TbAT1-KO EC50, single determinations, source data) was 576 nM and 850 nM. For the same molecule, the “RF (TbAT1-KO)” value ([7]; resistance factor: ratio of EC50 of resistant and Lister 427WT) was 2.37*.
